Data from patent US20180099931A1 (AbbVie S.à.r.l., priority 2016, published 2018).
Like-named read-outs stand apart in the source and are kept apart here.

Molecular target: T1, F508delCFTR (Homo sapiens, UniProt P13569, DEL508-508)
T1 construct: expressed in transfected cells; host or cells: CFBE41o- human lung-derived epithelial cells (CFBE4lo-F508delCFTR-HRP), doxycycline-inducible
Experiment: Cell Surface Expression-Horse Radish Peroxidase (CSE-HRP) Assay;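 as to Maximum % activity (with co-corrector): co-corrector and positive control are both the same reference corrector at 2 µM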;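 as to Maximum % activity (without co-corrector): percent of the 2 µM on-plate positive control corrector response above DMSO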
Format: cell-based
Details: for Emax / Maximum % activity (with co-corrector): maximum at any tested concentration, normalized to on-plate positive control; for Emax: read-out: Maximum % activity (without co-corrector)

[1] = test compound without co-corrector
[2] = test compound without co-corrector, read-out: EC50 (without co-corrector)
[3] = with co-corrector (2 μM of 3-[(2R,4R)-4-({[1-(2,2-difluoro-1,3-benzodioxol-5-yl)cyclopropyl]carbonyl}amino)-7-methoxy-3,4-dihydro-2H-chromen-2-yl]benzoic acid)
[4] = with co-corrector (2 μM of 3-[(2R,4R)-4-({[1-(2,2-difluoro-1,3-benzodioxol-5-yl)cyclopropyl]carbonyl}amino)-7-methoxy-3,4-dihydro-2H-chromen-2-yl]benzoic acid), read-out: EC50 (with co-corrector)

T1 sequence (P13569 with tags, fused parts or gaps DEL508-508): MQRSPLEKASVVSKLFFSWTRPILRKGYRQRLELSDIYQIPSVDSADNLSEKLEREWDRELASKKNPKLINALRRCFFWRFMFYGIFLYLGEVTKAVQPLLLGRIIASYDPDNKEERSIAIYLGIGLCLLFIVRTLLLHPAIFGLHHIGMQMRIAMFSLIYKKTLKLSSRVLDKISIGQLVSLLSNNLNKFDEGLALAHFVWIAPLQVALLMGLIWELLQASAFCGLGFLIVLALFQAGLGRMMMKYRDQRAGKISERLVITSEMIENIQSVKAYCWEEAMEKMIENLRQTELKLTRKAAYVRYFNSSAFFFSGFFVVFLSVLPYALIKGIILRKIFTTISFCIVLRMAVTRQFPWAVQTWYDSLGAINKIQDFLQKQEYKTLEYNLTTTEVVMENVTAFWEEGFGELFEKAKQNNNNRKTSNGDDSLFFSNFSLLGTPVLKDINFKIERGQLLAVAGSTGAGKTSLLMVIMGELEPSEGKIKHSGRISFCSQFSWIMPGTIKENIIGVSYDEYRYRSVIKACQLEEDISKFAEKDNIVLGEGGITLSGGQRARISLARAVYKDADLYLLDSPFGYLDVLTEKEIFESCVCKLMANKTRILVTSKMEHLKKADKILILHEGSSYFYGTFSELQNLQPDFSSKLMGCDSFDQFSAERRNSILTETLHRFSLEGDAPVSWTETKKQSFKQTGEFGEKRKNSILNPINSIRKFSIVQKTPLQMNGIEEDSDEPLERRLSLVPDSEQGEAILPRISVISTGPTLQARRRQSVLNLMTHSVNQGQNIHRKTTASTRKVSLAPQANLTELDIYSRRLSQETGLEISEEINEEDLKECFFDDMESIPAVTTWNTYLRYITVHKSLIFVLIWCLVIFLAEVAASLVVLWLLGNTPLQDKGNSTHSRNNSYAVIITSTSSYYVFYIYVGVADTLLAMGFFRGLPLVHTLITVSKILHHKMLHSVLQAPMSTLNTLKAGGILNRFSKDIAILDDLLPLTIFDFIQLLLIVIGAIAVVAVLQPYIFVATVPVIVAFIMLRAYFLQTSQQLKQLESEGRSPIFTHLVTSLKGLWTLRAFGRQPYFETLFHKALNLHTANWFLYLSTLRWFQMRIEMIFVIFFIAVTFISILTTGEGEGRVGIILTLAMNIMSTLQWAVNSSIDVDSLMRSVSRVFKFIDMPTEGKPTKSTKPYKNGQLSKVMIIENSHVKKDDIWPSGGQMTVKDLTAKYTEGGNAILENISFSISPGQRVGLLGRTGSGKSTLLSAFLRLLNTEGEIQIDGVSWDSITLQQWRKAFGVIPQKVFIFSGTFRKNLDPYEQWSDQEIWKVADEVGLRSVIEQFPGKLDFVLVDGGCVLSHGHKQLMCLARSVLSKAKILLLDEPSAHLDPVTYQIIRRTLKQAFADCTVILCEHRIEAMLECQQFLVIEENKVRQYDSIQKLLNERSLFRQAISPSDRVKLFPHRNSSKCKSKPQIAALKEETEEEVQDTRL

Structure (SMILES)	Emax [1]	EC50 [2]	Maximum % activity (with co-corrector) [3]	EC50 [4]
COc1ccc(C(C)(C)C)cc1CN[C@H]1[C@H](C(C)(C)C)[C@@H](C(=O)O)N(C(=O)[C@@H]2CCC[C@H](O)C2)[C@H]1c1ccccc1 [II-515]	100 to 200%	1 to 10 µM	+++ (≥350)	1 to 10 µM
COc1ccc(C23CC(C2)C3)cc1CN[C@H]1[C@H](C(C)(C)C)[C@@H](C(=O)O)N(C(=O)[C@H]2CCC[C@H](OC)C2)[C@H]1c1ccccc1 [II-516]	> 200%	1 to 10 µM	+++ (≥350)	< 1 µM
COc1ccc(C23CC(C2)C3)cc1CN[C@H]1[C@H](C(C)(C)C)[C@@H](C(=O)O)N(C(=O)C2CCCCC2)[C@H]1c1ccccc1F [II-517]	> 200%	1 to 10 µM	+++ (≥350)	< 1 µM
COc1ncc(C2CCC2)cc1CN[C@H]1[C@H](C(C)(C)C)[C@@H](C(=O)O)N(C(=O)C2C3CCCC32)[C@H]1c1cccnc1N(C)C (some centres unmarked) [II-518]	100 to 200%	1 to 10 µM	+++ (≥350)	1 to 10 µM
COc1nc(C(C)(C)C)ccc1CN[C@H]1[C@H](C(C)(C)C)[C@@H](C(=O)O)N(C(=O)OC(C)C)[C@H]1c1ccccc1F [II-519]	100 to 200%	1 to 10 µM	+++ (≥350)	< 1 µM
COc1ccc(C23CC(C2)C3)cc1CN[C@H]1[C@H](C(C)(C)C)[C@@H](C(=O)O)N(C(=O)C2CCCCC2)[C@H]1c1cccnc1N(C)C [II-520]	> 200%	1 to 10 µM	+++ (≥350)	< 1 µM
COc1nc(C(C)(C)C)ccc1CN[C@H]1[C@H](C(C)(C)C)[C@@H](C(=O)O)N(C(=O)[C@H]2CCCCO2)[C@H]1c1cccnc1N(C)C [II-521]	< 100%	1 to 10 µM	++ (≥150 and <350)	1 to 10 µM
COc1ccc(OC(F)(F)F)cc1CN[C@H]1[C@H](C(C)(C)C)[C@@H](C(=O)O)N(C(=O)OC(C)C)[C@H]1c1ccccc1 [II-523]	> 200%	1 to 10 µM	+++ (≥350)	1 to 10 µM
COc1ccc(OC(F)(F)F)cc1CN[C@H]1[C@H](C(C)(C)C)[C@@H](C(=O)O)N(C(=O)C2CCCCC2)[C@H]1c1cccnc1OC [II-524]	100 to 200%	1 to 10 µM	+++ (≥350)	1 to 10 µM
COc1nc(C(C)(C)C)ccc1CN[C@H]1[C@H](C(C)(C)C)[C@@H](C(=O)O)N(C(=O)C2CCCCC2)[C@H]1c1ccccc1F [II-525]	100 to 200%	1 to 10 µM	+++ (≥350)	1 to 10 µM
COc1ccc(C(C)(C)C)cc1CN[C@H]1[C@H](C(C)(C)C)[C@@H](C(=O)O)N(C(=O)[C@@H]2CCC[C@](C)(O)C2)[C@H]1c1ccccc1 [II-526]	100 to 200%	1 to 10 µM	+++ (≥350)	1 to 10 µM
COc1ccc(SC(F)(F)F)cc1CN[C@H]1[C@H](C(C)(C)C)[C@@H](C(=O)O)N(C(=O)C2CCCCC2)[C@H]1c1cccnc1OC [II-527]	100 to 200%	1 to 10 µM	+++ (≥350)	1 to 10 µM
COc1nc(C(C)(C)C)ccc1CN[C@H]1[C@H](C(C)(C)C)[C@@H](C(=O)O)N(C(=O)C2CCCCC2)[C@H]1c1ccccc1OC(F)F [II-528]	100 to 200%	1 to 10 µM	+++ (≥350)	1 to 10 µM
COc1ncc(C2CCC2)cc1CN[C@H]1[C@H](C(C)(C)C)[C@@H](C(=O)O)N(C(=O)[C@@H]2CCCCO2)[C@H]1c1ccccc1F [II-531]	100 to 200%	1 to 10 µM	+++ (≥350)	1 to 10 µM
COc1ncc(C2CCC2)cc1CN[C@H]1[C@H](C(C)(C)C)[C@@H](C(=O)O)N(C(=O)[C@@H]2CCC[C@@H](F)C2)[C@H]1c1ccccc1 [II-532]	> 200%	1 to 10 µM	+++ (≥350)	< 1 µM
COc1ccc(C(C)(C)C)cc1CN[C@H]1[C@H](C(C)(C)C)[C@@H](C(=O)O)N(C(=O)[C@@H]2CCC[C@@](C)(O)C2)[C@H]1c1ccccc1 [II-533]	> 200%	1 to 10 µM	+++ (≥350)	1 to 10 µM
COc1ccc(S(F)(F)(F)(F)F)cc1CN[C@H]1[C@H](C(C)(C)C)[C@@H](C(=O)O)N(C(=O)OC(C)C)[C@H]1c1ccccc1 [II-535]	> 200%	1 to 10 µM	+++ (≥350)	1 to 10 µM
COc1ccc(C2(C)CCC2)cc1CN[C@H]1[C@H](C(C)(C)C)[C@@H](C(=O)O)N(C(=O)OC(C)C)[C@H]1c1ccccc1 [II-537]	> 200%	1 to 10 µM	+++ (≥350)	1 to 10 µM

Structure (SMILES)	Emax [1]	EC50 [2]	Maximum % activity (with co-corrector) [3]	EC50 [4]
COc1cc(C(F)(F)F)ccc1CN[C@H]1[C@H](C(C)(C)C)[C@@H](C(=O)O)N(C(=O)[C@@H]2CCC[C@H](O)C2)[C@H]1c1ccccc1 [II-538]	100 to 200%	1 to 10 µM	+++ (≥350)	1 to 10 µM
COc1ccc(C(C)(C)C)cc1CN[C@H]1[C@H](C(C)(C)C)[C@@H](C(=O)O)N(C(=O)[C@@H](C)c2ccccc2)[C@H]1c1cccnc1OC [II-539]	< 100%	1 to 10 µM	++ (≥150 and <350)	1 to 10 µM
COc1ccc(C(C)(C)C)cc1CN[C@H]1[C@H](C(C)(C)C)[C@@H](C(=O)O)N(C(=O)[C@@H]2CCC[C@@H](OC(F)(F)F)C2)[C@H]1c1cccnc1OC [II-540]	> 200%	1 to 10 µM	+++ (≥350)	< 1 µM
COc1ccc(C(F)(F)F)cc1CN[C@H]1[C@H](C(C)(C)C)[C@@H](C(=O)O)N(C(=O)[C@H](C)c2ccccc2)[C@H]1c1cccnc1OC [II-541]	100 to 200%	1 to 10 µM	+++ (≥350)	1 to 10 µM
COc1ccc(OC(F)(F)F)cc1CN[C@H]1[C@H](C(C)(C)C)[C@@H](C(=O)O)N(C(=O)[C@H](C)c2ccccc2)[C@H]1c1cccnc1OC [II-542]	100 to 200%	1 to 10 µM	+++ (≥350)	1 to 10 µM
COc1ccc(C(C)(C)C)cc1CN[C@H]1[C@H](C(C)(C)C)[C@@H](C(=O)O)N(C(=O)[C@H]2C[C@@H]3CC[C@H]2O3)[C@H]1c1ccccc1 [II-543]	> 200%	1 to 10 µM	+++ (≥350)	1 to 10 µM
COc1ncc(C(F)(F)F)cc1CN[C@H]1[C@H](C23CC(C2)C3)[C@@H](C(=O)O)N(C(=O)OC(C)C)[C@H]1c1ccccc1F [II-544]	100 to 200%	1 to 10 µM	+++ (≥350)	1 to 10 µM
COc1ncc(C(F)(F)F)cc1CN[C@H]1[C@H](C(C)(C)C)[C@@H](C(=O)O)N(C(=O)C2CCCCC2)[C@H]1c1ccccc1C(C)C [II-545]	> 200%	1 to 10 µM	+++ (≥350)	1 to 10 µM
COc1ccc(C2(C)CCC2)cc1CN[C@H]1[C@H](C(C)(C)C)[C@@H](C(=O)O)N(C(=O)[C@@H]2CCCCO2)[C@H]1c1ccccc1F [II-546]	> 200%	1 to 10 µM	+++ (≥350)	1 to 10 µM
COc1ccc(-c2ccccc2)cc1CN[C@H]1[C@H](C(C)(C)C)[C@@H](C(=O)O)N(C(=O)OC(C)C)[C@H]1c1cccnc1N(C)C [II-547]	> 200%	1 to 10 µM	+++ (≥350)	1 to 10 µM
COc1nc(C2CCC2)ccc1CN[C@H]1[C@H](C(C)(C)C)[C@@H](C(=O)O)N(C(=O)OC(C)C)[C@H]1c1cccnc1N(C)C [II-548]	100 to 200%	1 to 10 µM	+++ (≥350)	1 to 10 µM
COc1cc2ccccc2cc1CN[C@H]1[C@H](C(C)(C)C)[C@@H](C(=O)O)N(C(=O)OC(C)C)[C@H]1c1ccccc1 [II-550]	> 200%	1 to 10 µM	+++ (≥350)	1 to 10 µM
COc1ccc(C(F)(F)F)cc1CN[C@H]1[C@H](C(C)(C)C)[C@@H](C(=O)O)N(C(=O)OC(C)C)[C@H]1c1cccnc1N(C)C [II-551]	> 200%	1 to 10 µM	+++ (≥350)	1 to 10 µM
COc1ccc(OC(F)(F)F)cc1CN[C@H]1[C@H](C(C)(C)C)[C@@H](C(=O)O)N(C(=O)OC(C)C)[C@H]1c1cccnc1N(C)C [II-552]	> 200%	1 to 10 µM	+++ (≥350)	1 to 10 µM
COc1ccc(C(F)(F)F)cc1CN[C@H]1[C@H](C(C)(C)C)[C@@H](C(=O)O)N(C(=O)OC(C)C)[C@H]1c1ccccc1 [II-553]	> 200%	1 to 10 µM	+++ (≥350)	1 to 10 µM
COc1cc2ccccc2cc1CN[C@@H]1[C@H](C(C)(C)C)[C@@H](C(=O)O)N(C(=O)OC(C)C)[C@H]1c1ccccc1 [II-554]	100 to 200%	1 to 10 µM	+++ (≥350)	1 to 10 µM
COc1cc2c(cc1CN[C@@H]1[C@H](C(C)(C)C)[C@@H](C(=O)O)N(C(=O)OC(C)C)[C@H]1c1ccccc1)CCC2 [II-555]	< 100%	1 to 10 µM	++ (≥150 and <350)	1 to 10 µM
